These results are taken from patent US6479554B2, “Immunotherapeutic agents” (Celgene Corporation, priority 1996, dated 2002).

For orientation: melting point means the temperature, or range, at which the solid turns liquid.

`CC=C(c1ccccc1)c1ccc(OC)c(OC)c1` [Example 5, 1-(3,4-Dimethoxyphenyl)-1-phenylprop-1-ene] gave a melting point of 72 to 73 °C.

On to `CC=C(c1ccc(OC)c(OC)c1)c1ccc(OC)c(OCC)c1` [Example 6, 1-(3,4-Dimethoxyphenyl)-1-(3-ethoxy-4-methoxyphenyl)prop-1-ene], for which the melting point was 65.5 to 68 °C.

Take `CCOc1cc(C(=CC#N)c2ccccc2)ccc1OC` [Example 8, 3-(3-Ethoxy-4-methoxyphenyl)-3-phenylacrylonitrile]: the melting point was 74 to 77 °C.

Turning to `COc1cc(OC)cc(C(=CC#N)c2ccc(OC)c(OC)c2)c1` [Example 10, 3-(3,4-Dimethoxyphenyl)-3-(3′,5′-dimethoxyphenyl)-acrylonitrile], the melting point lay within 88 to 90 °C.

For `COc1ccc(C(=CC#N)c2cccc([N+](=O)[O-])c2)cc1OC` [Example 11, 3-(3,4-Dimethoxyphenyl)-3-(3′-nitrophenyl)acrylonitrile], the melting point fell in the range of 117.5 to 120 °C.

The molecule `COc1ccc(C(=O)c2cccc(N)c2)cc1OC` [Example 13, 3,4-Dimethoxy-3′-aminobenzophenone] came in with a melting point of 157 to 175 °C.

Molecule `COc1ccc(C(=CC#N)c2ccc([N+](=O)[O-])cc2)cc1OC` [Example 14, 3-(3,4-Dimethoxyphenyl)-3-(4-nitrophenyl)acrylonitrile] showed a melting point of 117.5 to 120 °C.

The molecule `COc1ccc(C(=O)c2ccc(N)cc2)cc1OC` [Example 16, 3,4-Dimethoxy-4′-aminobenzophenone] showed a melting point of 189 to 191 °C.

`COc1ccc(C(=CC#N)c2ccc(C)cc2)cc1OC` [Example 17, 3-(3,4-Dimethoxyphenyl)-3-(4-methylphenyl)acrylonitrile]: the melting point lay within 83.5 to 86.5 °C.

Molecule `COc1ccc(C(=CC#N)c2ccc(-c3ccccc3)cc2)cc1OC` [Example 18, 3-(4-Biphenylyl)-3-(3,4-dimethoxyphenyl)acrylonitrile] returned a melting point of 132 to 134 °C.

Molecule `COc1ccc(C(=CC#N)c2ccc(F)cc2)cc1OC` [Example 19, 3-(3,4-Dimethoxyphenyl)-3-(4′-fluorophenyl)acrylonitrile] returned a melting point of 100 to 102 °C.

As to `COc1ccc(C(=CC#N)c2ccc3ccccc3c2)cc1OC` [Example 20, 3-(3,4-Dimethoxyphenyl)-3-naphth-2-ylacrylonitrile], the melting point fell in the range of 121 to 123 °C.

As for `COc1ccc(C(=CC#N)c2ccc3c(c2)OCO3)cc1OC` [Example 21, 3-(3,4-Dimethoxyphenyl)-3-(3,4-methylenedioxyphenyl)acrylonitrile], the melting point fell in the range of 121 to 123 °C.

`COc1ccc(C(=CC#N)c2ccncc2)cc1OC` [Example 22, 3-(3,4-Dimethoxyphenyl)-3-pyridin-4-ylacrylonitrile]: the melting point fell in the range of 116 to 125 °C.

Regarding `COc1ccc(C(=CC#N)c2ccccn2)cc1OC` [Example 23, 3-(3,4-Dimethoxyphenyl)-3-pyridin-2-ylacrylonitrile], the melting point is 134.5 to 135.5 °C.

`COc1ccc(C(=CC#N)c2ccco2)cc1OC` [Example 24, 3-(3,4-Dimethoxyphenyl)-3-(2-furyl)acrylonitrile] yielded a melting point of 78 to 82 °C.

As to `CCc1ccc(C(=CC#N)c2ccc(OC)c(OC)c2)cc1CC` [Example 26, 3-(3,4-Diethylphenyl)-3-(3,4-dimethoxyphenyl)acrylonitrile], the melting point lay in the range of 78 to 82 °C.

For the molecule `COc1ccc(C(=O)c2c(OC)cccc2OC)cc1OC` [Example 30, 2′,6′,3,4-Tetramethoxybenzophenone], the melting point was 128 to 129 °C.
